Measurements as given in ChEMBL document CHEMBL3132769, “Fragment growing to retain or alter the selectivity of anchored kinase hinge-binding fragments” (Medchemcomm, 2014).

Assays:
[1] = biological target: Tyrosine-protein kinase BTK (Homo sapiens) (UniProt Q06187); experiment: Inhibition of human full length BTK expressed in baculovirus assessed as substrate phosphorylation using fluorescence-labelled peptides as substrate at 95 uM after 90 mins by microfluidic peptide phosphorylation assay
[2] = biological target: Receptor-type tyrosine-protein kinase FLT3 (Homo sapiens) (UniProt P36888); experiment: Inhibition of human FLT3 catalytic domain expressed in baculovirus assessed as substrate phosphorylation using fluorescence-labelled peptides as substrate at 95 uM after 90 mins by microfluidic peptide phosphorylation assay
Receptor-type tyrosine-protein kinase FLT3 (Homo sapiens), sequence (P36888 whole entry, the tested form may be a part): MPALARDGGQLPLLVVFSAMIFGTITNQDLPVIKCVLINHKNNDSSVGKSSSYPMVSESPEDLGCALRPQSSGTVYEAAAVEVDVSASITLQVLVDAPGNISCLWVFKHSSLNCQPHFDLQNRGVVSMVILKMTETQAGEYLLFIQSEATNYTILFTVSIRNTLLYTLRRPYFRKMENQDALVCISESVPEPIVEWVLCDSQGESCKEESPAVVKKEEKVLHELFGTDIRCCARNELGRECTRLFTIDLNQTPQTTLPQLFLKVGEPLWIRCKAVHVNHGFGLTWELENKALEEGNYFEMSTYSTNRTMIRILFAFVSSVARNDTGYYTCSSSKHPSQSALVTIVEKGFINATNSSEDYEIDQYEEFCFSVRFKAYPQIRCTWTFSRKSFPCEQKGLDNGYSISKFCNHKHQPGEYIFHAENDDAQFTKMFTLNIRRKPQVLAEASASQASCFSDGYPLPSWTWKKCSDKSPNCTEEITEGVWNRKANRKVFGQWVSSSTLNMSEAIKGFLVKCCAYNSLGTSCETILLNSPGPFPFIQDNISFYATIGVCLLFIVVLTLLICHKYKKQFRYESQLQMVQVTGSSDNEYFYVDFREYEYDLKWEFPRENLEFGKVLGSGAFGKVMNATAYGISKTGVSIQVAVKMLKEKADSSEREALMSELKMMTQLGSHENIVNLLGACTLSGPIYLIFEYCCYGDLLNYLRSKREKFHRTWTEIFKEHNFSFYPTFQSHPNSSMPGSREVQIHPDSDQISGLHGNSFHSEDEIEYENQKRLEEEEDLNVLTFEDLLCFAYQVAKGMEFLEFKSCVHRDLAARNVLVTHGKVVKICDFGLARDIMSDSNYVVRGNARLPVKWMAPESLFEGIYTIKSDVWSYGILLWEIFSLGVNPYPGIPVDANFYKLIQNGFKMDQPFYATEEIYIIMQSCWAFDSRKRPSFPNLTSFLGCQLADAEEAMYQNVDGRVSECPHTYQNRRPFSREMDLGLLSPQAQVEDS

[3] = biological target: RAC-alpha serine/threonine-protein kinase (Homo sapiens) (UniProt P31749); experiment: Inhibition of human AKT1 catalytic domain expressed in baculovirus assessed as substrate phosphorylation using fluorescence-labelled peptides as substrate at 0.2 uM after 90 mins by microfluidic peptide phosphorylation assay
RAC-alpha serine/threonine-protein kinase (Homo sapiens), sequence (P31749 whole entry, the tested form may be a part): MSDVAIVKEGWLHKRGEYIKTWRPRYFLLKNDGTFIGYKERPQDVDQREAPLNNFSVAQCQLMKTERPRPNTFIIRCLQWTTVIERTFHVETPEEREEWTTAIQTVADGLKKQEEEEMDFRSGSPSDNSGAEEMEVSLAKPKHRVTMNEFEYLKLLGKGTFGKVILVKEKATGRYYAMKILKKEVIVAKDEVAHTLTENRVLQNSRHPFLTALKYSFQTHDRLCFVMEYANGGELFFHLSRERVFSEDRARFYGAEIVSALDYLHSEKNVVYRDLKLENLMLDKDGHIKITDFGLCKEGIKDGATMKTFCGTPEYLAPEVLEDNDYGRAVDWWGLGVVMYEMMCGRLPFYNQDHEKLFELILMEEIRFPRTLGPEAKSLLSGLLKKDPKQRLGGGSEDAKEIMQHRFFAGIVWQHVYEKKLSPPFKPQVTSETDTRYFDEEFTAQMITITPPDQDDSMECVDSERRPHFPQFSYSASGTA

[4] = biological target: Fibroblast growth factor receptor 3 (Homo sapiens) (UniProt P22607); experiment: Inhibition of human FGFR3 catalytic domain expressed in baculovirus assessed as substrate phosphorylation using fluorescence-labelled peptides as substrate at 2 uM after 90 mins by microfluidic peptide phosphorylation assay
[5] = biological target: Protein kinase C beta type (Homo sapiens) (UniProt P05771); experiment: Inhibition of human truncated PKC beta1 expressed in baculovirus assessed as substrate phosphorylation using fluorescence-labelled peptides as substrate at 2 uM after 90 mins by microfluidic peptide phosphorylation assay
Protein kinase C beta type (Homo sapiens), sequence (P05771 2-671 limits assumed): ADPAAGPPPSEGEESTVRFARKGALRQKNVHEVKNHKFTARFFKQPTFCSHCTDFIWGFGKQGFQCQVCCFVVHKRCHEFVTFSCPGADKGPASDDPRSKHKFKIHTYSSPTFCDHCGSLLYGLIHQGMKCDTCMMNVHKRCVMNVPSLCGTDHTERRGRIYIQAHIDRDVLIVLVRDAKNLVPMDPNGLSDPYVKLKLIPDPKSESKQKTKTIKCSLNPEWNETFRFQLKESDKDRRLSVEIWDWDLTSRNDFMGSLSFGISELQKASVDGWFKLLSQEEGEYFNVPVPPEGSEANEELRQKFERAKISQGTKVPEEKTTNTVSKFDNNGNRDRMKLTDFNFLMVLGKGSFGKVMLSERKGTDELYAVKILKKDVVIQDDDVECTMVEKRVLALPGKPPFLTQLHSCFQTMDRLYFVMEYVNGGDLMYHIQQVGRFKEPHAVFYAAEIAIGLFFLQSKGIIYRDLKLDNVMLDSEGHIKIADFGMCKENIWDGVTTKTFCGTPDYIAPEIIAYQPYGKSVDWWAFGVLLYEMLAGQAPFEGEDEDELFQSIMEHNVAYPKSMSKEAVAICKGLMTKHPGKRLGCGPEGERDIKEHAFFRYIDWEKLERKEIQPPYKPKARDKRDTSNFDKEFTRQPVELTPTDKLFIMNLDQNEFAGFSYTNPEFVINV

[6] = biological target: Ribosomal protein S6 kinase alpha-4 (Homo sapiens) (UniProt O75676); experiment: Inhibition of human full length MSK2 expressed in baculovirus assessed as substrate phosphorylation using fluorescence-labelled peptides as substrate at 2 uM after 90 mins by microfluidic peptide phosphorylation assay
[7] = biological target: Fibroblast growth factor receptor 4 (Homo sapiens) (UniProt P22455); experiment: Inhibition of human FGFR4 catalytic domain expressed in baculovirus assessed as substrate phosphorylation using fluorescence-labelled peptides as substrate at 0.06 uM after 90 mins by microfluidic peptide phosphorylation assay
Fibroblast growth factor receptor 4 (Homo sapiens), sequence (P22455 22-802 limits assumed): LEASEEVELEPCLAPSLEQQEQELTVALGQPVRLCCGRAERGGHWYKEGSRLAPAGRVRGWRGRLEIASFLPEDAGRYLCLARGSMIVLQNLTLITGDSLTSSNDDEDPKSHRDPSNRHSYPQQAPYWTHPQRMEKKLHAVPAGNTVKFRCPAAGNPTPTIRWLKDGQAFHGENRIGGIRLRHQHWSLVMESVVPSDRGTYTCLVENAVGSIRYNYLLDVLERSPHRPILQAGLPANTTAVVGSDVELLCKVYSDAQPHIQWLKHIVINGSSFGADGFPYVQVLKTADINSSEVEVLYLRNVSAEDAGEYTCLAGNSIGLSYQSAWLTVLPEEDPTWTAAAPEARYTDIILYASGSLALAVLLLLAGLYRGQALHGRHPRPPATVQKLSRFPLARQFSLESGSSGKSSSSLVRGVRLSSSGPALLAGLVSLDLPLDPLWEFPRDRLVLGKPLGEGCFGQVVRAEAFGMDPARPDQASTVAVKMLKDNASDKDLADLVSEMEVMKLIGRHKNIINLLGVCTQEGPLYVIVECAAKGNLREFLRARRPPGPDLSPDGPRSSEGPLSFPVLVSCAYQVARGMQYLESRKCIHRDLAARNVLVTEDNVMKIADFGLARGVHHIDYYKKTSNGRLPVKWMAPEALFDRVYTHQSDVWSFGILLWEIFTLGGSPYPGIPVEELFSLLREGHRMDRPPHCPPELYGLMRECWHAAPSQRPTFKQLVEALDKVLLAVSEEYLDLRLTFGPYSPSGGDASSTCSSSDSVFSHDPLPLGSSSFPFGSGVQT

[8] = biological target: Ribosomal protein S6 kinase alpha-5 (Homo sapiens) (UniProt O75582); experiment: Inhibition of human full length MSK1 expressed in baculovirus assessed as substrate phosphorylation using fluorescence-labelled peptides as substrate at 0.06 uM after 90 mins by microfluidic peptide phosphorylation assay
Ribosomal protein S6 kinase alpha-5 (Homo sapiens), sequence (O75582 whole entry, looked up): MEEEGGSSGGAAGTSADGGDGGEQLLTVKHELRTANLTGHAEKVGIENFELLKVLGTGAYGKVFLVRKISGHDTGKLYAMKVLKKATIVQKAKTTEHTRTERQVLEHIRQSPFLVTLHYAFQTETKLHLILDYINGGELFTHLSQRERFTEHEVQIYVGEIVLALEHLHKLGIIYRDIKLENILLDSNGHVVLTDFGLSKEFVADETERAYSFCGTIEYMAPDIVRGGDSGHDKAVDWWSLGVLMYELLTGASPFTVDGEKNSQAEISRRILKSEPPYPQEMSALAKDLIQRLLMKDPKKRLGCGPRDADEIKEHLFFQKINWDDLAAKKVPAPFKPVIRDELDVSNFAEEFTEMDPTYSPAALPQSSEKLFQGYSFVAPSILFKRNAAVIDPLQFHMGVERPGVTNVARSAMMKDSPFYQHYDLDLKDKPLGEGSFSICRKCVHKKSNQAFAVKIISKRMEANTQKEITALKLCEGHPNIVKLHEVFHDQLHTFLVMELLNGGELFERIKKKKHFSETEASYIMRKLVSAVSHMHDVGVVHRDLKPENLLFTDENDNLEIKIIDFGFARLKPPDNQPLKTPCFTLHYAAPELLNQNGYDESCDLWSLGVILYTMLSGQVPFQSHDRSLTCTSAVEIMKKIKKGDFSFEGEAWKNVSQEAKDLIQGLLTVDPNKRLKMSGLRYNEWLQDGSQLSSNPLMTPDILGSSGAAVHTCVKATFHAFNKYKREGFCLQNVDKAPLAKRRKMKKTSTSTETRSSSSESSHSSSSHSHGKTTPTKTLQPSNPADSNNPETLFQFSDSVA

[9] = biological target: Proto-oncogene tyrosine-protein kinase Src (Homo sapiens) (UniProt P12931); experiment: Inhibition of human full length SRC expressed in baculovirus assessed as substrate phosphorylation using fluorescence-labelled peptides as substrate at 0.06 uM after 90 mins by microfluidic peptide phosphorylation assay
[10] = biological target: Ribosomal protein S6 kinase alpha-2 (Homo sapiens) (UniProt Q15349); experiment: Inhibition of human full length RSK3 expressed in baculovirus assessed as substrate phosphorylation using fluorescence-labelled peptides as substrate at […] after 90 mins by microfluidic peptide phosphorylation assay
[11] = biological target: T1, Aurora kinase C (Homo sapiens) (UniProt Q9UQB9); experiment: Inhibition of human full length AurC expressed in baculovirus assessed as substrate phosphorylation using fluorescence-labelled peptides as substrate at 420 uM after 90 mins by microfluidic peptide phosphorylation assay
T1 sequence (whole entry): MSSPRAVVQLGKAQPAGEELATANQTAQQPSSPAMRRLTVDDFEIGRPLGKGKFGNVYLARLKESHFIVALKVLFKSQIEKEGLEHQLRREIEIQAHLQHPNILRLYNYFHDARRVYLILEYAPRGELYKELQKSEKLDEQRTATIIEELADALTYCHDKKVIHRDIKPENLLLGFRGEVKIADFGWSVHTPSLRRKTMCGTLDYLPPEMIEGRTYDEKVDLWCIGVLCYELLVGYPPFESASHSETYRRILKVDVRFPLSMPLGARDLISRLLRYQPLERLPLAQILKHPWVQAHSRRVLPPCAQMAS

[12] = biological target: MAP kinase p38 (Homo sapiens) (UniProt O15264+Q15759+Q16539+P53778); experiment: Inhibition of human full length p38 beta2 expressed in Escherichia coli cell assessed as substrate phosphorylation using fluorescence-labelled peptides as substrate at 420 uM after 90 mins by microfluidic peptide phosphorylation assay
[13] = biological target: T2, cGMP-dependent protein kinase 1 (Homo sapiens) (UniProt Q13976); experiment: Inhibition of human full length PKG-1beta expressed in baculovirus assessed as substrate phosphorylation using fluorescence-labelled peptides as substrate at 9 uM after 90 mins by microfluidic peptide phosphorylation assay
T2 sequence (whole entry): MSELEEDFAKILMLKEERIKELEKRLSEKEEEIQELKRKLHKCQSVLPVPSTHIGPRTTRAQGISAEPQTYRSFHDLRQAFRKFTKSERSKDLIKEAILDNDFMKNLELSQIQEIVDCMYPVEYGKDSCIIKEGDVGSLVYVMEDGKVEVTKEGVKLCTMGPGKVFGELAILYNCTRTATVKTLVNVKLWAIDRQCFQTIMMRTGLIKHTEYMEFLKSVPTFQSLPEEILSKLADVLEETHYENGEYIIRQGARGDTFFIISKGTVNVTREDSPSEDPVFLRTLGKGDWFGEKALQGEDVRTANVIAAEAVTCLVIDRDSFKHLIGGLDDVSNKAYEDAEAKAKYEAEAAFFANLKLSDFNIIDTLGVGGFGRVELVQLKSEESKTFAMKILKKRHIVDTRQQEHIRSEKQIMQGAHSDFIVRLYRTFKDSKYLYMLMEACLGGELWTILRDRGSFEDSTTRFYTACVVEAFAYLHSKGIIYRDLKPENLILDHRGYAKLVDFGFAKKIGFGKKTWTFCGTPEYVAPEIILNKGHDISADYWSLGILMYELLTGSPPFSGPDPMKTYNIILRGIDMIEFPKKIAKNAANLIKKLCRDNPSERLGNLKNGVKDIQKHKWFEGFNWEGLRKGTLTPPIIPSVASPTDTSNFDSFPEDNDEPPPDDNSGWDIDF

[14] = system: Fibroblast growth factor receptor 2 (Homo sapiens), P21802 [N549H]; experiment: Inhibition of human FGFR2 N549H mutant catalytic domain expressed in baculovirus assessed as substrate phosphorylation using fluorescence-labelled peptides as substrate at 70 uM after 90 mins by microfluidic peptide phosphorylation assay
Fibroblast growth factor receptor 2 (Homo sapiens), P21802 [N549H], sequence (P21802 whole entry N549H, the tested form may be a part): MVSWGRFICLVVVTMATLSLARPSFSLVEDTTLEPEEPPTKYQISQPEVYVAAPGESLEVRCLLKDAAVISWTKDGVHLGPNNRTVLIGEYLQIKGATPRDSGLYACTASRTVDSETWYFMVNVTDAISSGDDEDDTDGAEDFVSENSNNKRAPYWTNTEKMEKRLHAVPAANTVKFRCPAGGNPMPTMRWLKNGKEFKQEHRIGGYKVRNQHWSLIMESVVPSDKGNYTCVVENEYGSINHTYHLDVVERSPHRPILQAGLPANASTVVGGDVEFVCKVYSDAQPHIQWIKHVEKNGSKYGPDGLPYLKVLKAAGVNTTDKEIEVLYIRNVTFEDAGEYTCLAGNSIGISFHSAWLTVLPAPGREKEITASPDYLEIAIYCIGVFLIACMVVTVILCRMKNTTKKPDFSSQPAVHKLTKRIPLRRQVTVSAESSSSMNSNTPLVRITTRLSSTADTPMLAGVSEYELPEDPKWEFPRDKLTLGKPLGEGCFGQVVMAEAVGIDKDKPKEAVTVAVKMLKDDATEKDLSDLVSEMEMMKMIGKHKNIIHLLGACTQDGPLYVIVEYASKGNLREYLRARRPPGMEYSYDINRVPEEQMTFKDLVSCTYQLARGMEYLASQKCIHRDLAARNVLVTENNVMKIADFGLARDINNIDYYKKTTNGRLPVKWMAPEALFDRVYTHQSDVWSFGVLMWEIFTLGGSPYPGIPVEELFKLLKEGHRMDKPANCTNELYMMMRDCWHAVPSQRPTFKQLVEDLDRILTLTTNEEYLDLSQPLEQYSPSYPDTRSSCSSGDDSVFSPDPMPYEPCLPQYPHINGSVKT

Homo sapiens [15] = organism: Homo sapiens; experiment: Inhibition of human P70S6K catalytic domain expressed in baculovirus assessed as substrate phosphorylation using fluorescence-labelled peptides as substrate at 70 uM after 90 mins by microfluidic peptide phosphorylation assay
Homo sapiens [16] = organism: Homo sapiens; experiment: Inhibition of human full length PKA expressed in baculovirus assessed as substrate phosphorylation using fluorescence-labelled peptides as substrate at 70 uM after 90 mins by microfluidic peptide phosphorylation assay

Work on `NCCc1ccc(-c2ncnc3[nH]cnc23)cc1` yielded an inhibition [1] of 17% and an inhibition [2] of 49.5%.

Molecule `Clc1ccc(C2(c3ccc(-c4ncnc5[nH]cnc45)cc3)CCNCC2)cc1` has an inhibition [3] of 94%.

For `NC1CCN(c2ncnc3[nH]ccc23)CC1`, the inhibition [4] was 0%, the inhibition [5] was 16.5% and the inhibition [6] was 15%.

`NC1(Cc2ccc(Cl)cc2)CCN(c2ncnc3[nH]ccc23)CC1` showed an inhibition [7] of 2%, an inhibition [8] of 5.5% and an inhibition [9] of 0%.

With `COC(=O)c1cnc(Nc2cnc(C#N)cn2)cc1NCC1CCNCC1` the inhibition [10] was 44%.

Work on `c1nc(N2CCOCC2)c2nc[nH]c2n1` yielded an inhibition [11] of 95.5% and an inhibition [12] of 1.5%.

In the case of `NCC1CN(c2ncnc3[nH]c4cnccc4c23)CCO1` (stereo unspecified), the inhibition [13] was 12.5%.

In the case of `CNCc1ccc(-c2ncnc3[nH]cnc23)cc1`, the inhibition [14] was 35.5%, the inhibition (Homo sapiens [15]) was 29.5% and the inhibition (Homo sapiens [16]) was 96%.
